Data: patent publication US20180200257A1, “METHODS FOR THE TREATMENT OF INFLAMMATORY DISORDERS” (Galapagos NV, priority 2015, published 2018)

Tested on: subjects with moderately to severely active RA who have an inadequate response to methotrexate (MTX)
Assay: Study 1 (add-on to MTX) - Alanine Aminotransferase (ALT) levels
Format: in vivo, human
Conditions: 24 weeks results
Procedure: Double-blind, placebo-controlled add on study in subjects with moderately to severely active RA who have an inadequate response to methotrexate (MTX) (oral or parenteral).
595 subjects randomized to one of 6 dose regimens of Compound 1 (dosed as [Compound 1:HCl:3H2O]) (3 dose levels administered either once or twice daily) or placebo on top of each subject's stable dose of MTX.
Compound 1 (dosed as [Compound 1:HCl:3H2O]) is dosed for twelve weeks once daily (q.d.) (50 mg, 100 mg or 200 mg) or twice daily (b.i.d.) (25 mg, 50 mg or 100 mg); or placebo.
At Week 12, the subjects on placebo who have not achieved 20% improvement in swollen joint count (SJC66) and tender joint count (TJC68) are re-randomized automatically to receive Compound 1 (dosed as a [Compound 1:HCl:3H2O]) either at 100 mg q.d. or 50 mg b.i.d. doses in a blinded fashion; subjects on 50 mg q.d. who have not achieved 20% improvement in SJC66 and TJC68 will be assigned to 100 mg q.d. and subjects on 25 mg b.i.d. that have not achieved a 20% improvement in SJC66 and TJC68 will be assigned to 50 mg b.i.d. Subjects who switch treatment at week 12 are handled as if they discontinued at week 12 for the purpose of statistical analysis, whereas subjects in the other groups will maintain their randomized treatment until Week 24.
ALT levels determination is available at Quest Diagnostics, Clinical Trials, Quest House, 125-135 Staines Road, Hounslow, Middlesex, TW3 3JB, United Kingdom under Catalogue n#84460.
ALT catalyzes the exchange of the amino group of alanine with the oxogroup of 2-ketoglutarate to form pyruvate and glutamate. In the presence of lactic dehydrogenase, pyruvate reacts with NADH to form NAD+, measured spectrophotometrically. Guidelines for the ALT value have been issued by the association for Clinical Biochemistry and Laboratory Medicine, 130-132 Tooley Street LONDON SE1 2TU, united Kingdom, wherein the ALT value should be below 34 U/l in Female and below 52 U/L in male.

[1] = continued 100 mg b.i.d., week 1
[2] = continued 100 mg b.i.d., week 2
[3] = continued 100 mg b.i.d., week 4
[4] = continued 100 mg b.i.d., week 8
[5] = continued 100 mg b.i.d., week 12
[6] = continued 100 mg b.i.d., week 16
[7] = continued 100 mg b.i.d., week 20
[8] = continued 100 mg b.i.d., week 24
[9] = from 25 mg b.i.d. to 50 mg b.i.d. at 12 weeks, week 1
[10] = from 25 mg b.i.d. to 50 mg b.i.d. at 12 weeks, week 2
[11] = from 25 mg b.i.d. to 50 mg b.i.d. at 12 weeks, week 4
[12] = from 25 mg b.i.d. to 50 mg b.i.d. at 12 weeks, week 8
[13] = from 25 mg b.i.d. to 50 mg b.i.d. at 12 weeks, week 12
[14] = from 25 mg b.i.d. to 50 mg b.i.d. at 12 weeks, week 16
[15] = from 25 mg b.i.d. to 50 mg b.i.d. at 12 weeks, week 20
[16] = from 25 mg b.i.d. to 50 mg b.i.d. at 12 weeks, week 24
[17] = from 50 mg q.d. to 100 mg q.d. at 12 weeks, week 1
[18] = from 50 mg q.d. to 100 mg q.d. at 12 weeks, week 2
[19] = from 50 mg q.d. to 100 mg q.d. at 12 weeks, week 4
[20] = from 50 mg q.d. to 100 mg q.d. at 12 weeks, week 8
[21] = from 50 mg q.d. to 100 mg q.d. at 12 weeks, week 12
[22] = from 50 mg q.d. to 100 mg q.d. at 12 weeks, week 16
[23] = from 50 mg q.d. to 100 mg q.d. at 12 weeks, week 20
[24] = from 50 mg q.d. to 100 mg q.d. at 12 weeks, week 24
[25] = placebo switched to 50 mg b.i.d. at week 12, week 16
[26] = placebo switched to 50 mg b.i.d. at week 12, week 20
[27] = placebo switched to 50 mg b.i.d. at week 12, week 24
[28] = placebo switched to 100 mg q.d. at week 12, week 16
[29] = placebo switched to 100 mg q.d. at week 12, week 20
[30] = placebo switched to 100 mg q.d. at week 12, week 24

With `O=C(Nc1nc2cccc(-c3ccc(CN4CCS(=O)(=O)CC4)cc3)n2n1)C1CC1` [Compound 1, cyclopropanecarboxylic acid {5-[4-(1,1-dioxo-thiomorpholin-4-ylmethyl)-phenyl]-[1,2,4]triazolo[1,5-a]pyridin-2-yl}-amide] the “Study 1 - ALT Mean CFB” value (continued 50 mg q.d., week 12) was 0.5 IU/L, the “Study 1 - ALT Mean percentage CFB” value (continued 50 mg q.d., week 12) was 13.8% and the “Study 1 - ALT Mean CFB” value (continued 50 mg q.d., week 16) was 1.1 IU/L. For the same compound, the “Study 1 - ALT Mean percentage CFB” value (continued 50 mg q.d., week 16) was 18.1%, the “Study 1 - ALT Mean CFB” value (continued 50 mg q.d., week 20) was 2.2 IU/L and the “Study 1 - ALT Mean percentage CFB” value (continued 50 mg q.d., week 20) was 22.1%. The “Study 1 - ALT Mean CFB” value (continued 50 mg q.d., week 24) was 1.7 IU/L, the “Study 1 - ALT Mean percentage CFB” value (continued 50 mg q.d., week 24) was 19.4% and the “Study 1 - ALT Mean CFB” value [1] was 0.5 IU/L. The “Study 1 - ALT Mean percentage CFB” value [1] was 8.8%, the “Study 1 - ALT Mean CFB” value [2] was 0.8 IU/L and the “Study 1 - ALT Mean percentage CFB” value [2] was 10.4%. The “Study 1 - ALT Mean CFB” value [3] was 0.8 IU/L, the “Study 1 - ALT Mean percentage CFB” value [3] was 20.4% and the “Study 1 - ALT Mean CFB” value [4] was 0.6 IU/L. The “Study 1 - ALT Mean percentage CFB” value [4] was 24.5%, the “Study 1 - ALT Mean CFB” value [5] was 1.7 IU/L and the “Study 1 - ALT Mean percentage CFB” value [5] was 26.0%. The “Study 1 - ALT Mean CFB” value [6] was 3.2 IU/L, the “Study 1 - ALT Mean percentage CFB” value [6] was 32.4% and the “Study 1 - ALT Mean CFB” value [7] was 2.8 IU/L. For the same compound, the “Study 1 - ALT Mean percentage CFB” value [7] was 34.2%, the “Study 1 - ALT Mean CFB” value [8] was 4.0 IU/L and the “Study 1 - ALT Mean percentage CFB” value [8] was 47.8%. For the same compound, the “Study 1 - ALT Mean CFB” value (continued 100 mg q.d., week 1) was 3.0 IU/L, the “Study 1 - ALT Mean percentage CFB” value (continued 100 mg q.d., week 1) was 13.6% and the “Study 1 - ALT Mean CFB” value (continued 100 mg q.d., week 2) was 0.9 IU/L. The “Study 1 - ALT Mean percentage CFB” value (continued 100 mg q.d., week 2) was 8.8%, the “Study 1 - ALT Mean CFB” value (continued 100 mg q.d., week 4) was 0.6 IU/L and the “Study 1 - ALT Mean percentage CFB” value (continued 100 mg q.d., week 4) was 9.1%. The “Study 1 - ALT Mean CFB” value (continued 100 mg q.d., week 8) was 1.7 IU/L, the “Study 1 - ALT Mean percentage CFB” value (continued 100 mg q.d., week 8) was 15.1% and the “Study 1 - ALT Mean CFB” value (continued 100 mg q.d., week 12) was 1.6 IU/L. For the same compound, the “Study 1 - ALT Mean percentage CFB” value (continued 100 mg q.d., week 12) was 15.6%, the “Study 1 - ALT Mean CFB” value (continued 100 mg q.d., week 16) was 0.7 IU/L and the “Study 1 - ALT Mean percentage CFB” value (continued 100 mg q.d., week 16) was 9.5%. The “Study 1 - ALT Mean CFB” value (continued 100 mg q.d., week 20) was 1.8 IU/L, the “Study 1 - ALT Mean percentage CFB” value (continued 100 mg q.d., week 20) was 19.8% and the “Study 1 - ALT Mean CFB” value (continued 100 mg q.d., week 24) was 5.1 IU/L. The “Study 1 - ALT Mean percentage CFB” value (continued 100 mg q.d., week 24) was 39.5%, the “Study 1 - ALT Mean CFB” value (continued 200 mg q.d., week 1) was 2.3 IU/L and the “Study 1 - ALT Mean percentage CFB” value (continued 200 mg q.d., week 1) was 11.4%. The “Study 1 - ALT Mean CFB” value (continued 200 mg q.d., week 2) was 1.4 IU/L, the “Study 1 - ALT Mean percentage CFB” value (continued 200 mg q.d., week 2) was 15.5% and the “Study 1 - ALT Mean CFB” value (continued 200 mg q.d., week 4) was 1.1 IU/L. The “Study 1 - ALT Mean percentage CFB” value (continued 200 mg q.d., week 4) was 15.1%, the “Study 1 - ALT Mean CFB” value (continued 200 mg q.d., week 8) was 3.9 IU/L and the “Study 1 - ALT Mean percentage CFB” value (continued 200 mg q.d., week 8) was 31.1%. The “Study 1 - ALT Mean CFB” value (continued 200 mg q.d., week 12) was 3.4 IU/L, the “Study 1 - ALT Mean percentage CFB” value (continued 200 mg q.d., week 12) was 33.9% and the “Study 1 - ALT Mean CFB” value (continued 200 mg q.d., week 16) was 4.7 IU/L. For the same compound, the “Study 1 - ALT Mean percentage CFB” value (continued 200 mg q.d., week 16) was 43.8%, the “Study 1 - ALT Mean CFB” value (continued 200 mg q.d., week 20) was 2.9 IU/L and the “Study 1 - ALT Mean percentage CFB” value (continued 200 mg q.d., week 20) was 32.9%. For the same compound, the “Study 1 - ALT Mean CFB” value (continued 200 mg q.d., week 24) was 5.4 IU/L, the “Study 1 - ALT Mean percentage CFB” value (continued 200 mg q.d., week 24) was 47.5% and the “Study 1 - ALT Mean CFB” value [9] was −7.8 IU/L. The “Study 1 - ALT Mean percentage CFB” value [9] was −16.4%, the “Study 1 - ALT Mean CFB” value [10] was −7.3 IU/L and the “Study 1 - ALT Mean percentage CFB” value [10] was −12.0%. For the same compound, the “Study 1 - ALT Mean CFB” value [11] was −5.6 IU/L, the “Study 1 - ALT Mean percentage CFB” value [11] was 0.0% and the “Study 1 - ALT Mean CFB” value [12] was −8.3 IU/L. The “Study 1 - ALT Mean percentage CFB” value [12] was −16.4%, the “Study 1 - ALT Mean CFB” value [13] was −6.4 IU/L and the “Study 1 - ALT Mean percentage CFB” value [13] was −5.8%. For the same compound, the “Study 1 - ALT Mean CFB” value [14] was −7.9 IU/L, the “Study 1 - ALT Mean percentage CFB” value [14] was −9.7% and the “Study 1 - ALT Mean CFB” value [15] was −5.4 IU/L. For the same compound, the “Study 1 - ALT Mean percentage CFB” value [15] was 5.9%, the “Study 1 - ALT Mean CFB” value [16] was −4.8 IU/L and the “Study 1 - ALT Mean percentage CFB” value [16] was 5.7%. The “Study 1 - ALT Mean CFB” value [17] was 0.4 IU/L, the “Study 1 - ALT Mean percentage CFB” value [17] was 0.9% and the “Study 1 - ALT Mean CFB” value [18] was −1.4 IU/L. For the same compound, the “Study 1 - ALT Mean percentage CFB” value [18] was −6.5%, the “Study 1 - ALT Mean CFB” value [19] was −0.3 IU/L and the “Study 1 - ALT Mean percentage CFB” value [19] was 2.2%. For the same compound, the “Study 1 - ALT Mean CFB” value [20] was −0.2 IU/L, the “Study 1 - ALT Mean percentage CFB” value [20] was 3.6% and the “Study 1 - ALT Mean CFB” value [21] was −0.1 IU/L. For the same compound, the “Study 1 - ALT Mean percentage CFB” value [21] was 5.2%, the “Study 1 - ALT Mean CFB” value [22] was −2.3 IU/L and the “Study 1 - ALT Mean percentage CFB” value [22] was −9.8%. For the same compound, the “Study 1 - ALT Mean CFB” value [23] was −1.7 IU/L, the “Study 1 - ALT Mean percentage CFB” value [23] was −3.7% and the “Study 1 - ALT Mean CFB” value [24] was −3.0 IU/L. The “Study 1 - ALT Mean percentage CFB” value [24] was −8.7%, the “Study 1 - ALT Mean CFB” value [25] was 0.5 IU/L and the “Study 1 - ALT Mean percentage CFB” value [25] was 1.1%. The “Study 1 - ALT Mean CFB” value [26] was 0.7 IU/L, the “Study 1 - ALT Mean percentage CFB” value [26] was 0.7% and the “Study 1 - ALT Mean CFB” value [27] was 1.0 IU/L. The “Study 1 - ALT Mean percentage CFB” value [27] was 6.8%, the “Study 1 - ALT Mean CFB” value [28] was −1.3 IU/L and the “Study 1 - ALT Mean percentage CFB” value [28] was 0.4%. The “Study 1 - ALT Mean CFB” value [29] was 0.5 IU/L, the “Study 1 - ALT Mean percentage CFB” value [29] was 5.9% and the “Study 1 - ALT Mean CFB” value [30] was −0.1 IU/L. For the same compound, the “Study 1 - ALT Mean percentage CFB” value [30] was 10.0%.
